Source: patent US20250235446A1, “COMPOSITION FOR INHIBITING METASTASIS AND ENHANCING ANTICANCER DRUG SENSITIVITY” (Korea Advanced Institute of Science and Technology, priority 2020, published 2025)

Assays:
[1] = tested on: A549 cells; assay: Western blot of phenotype-related proteins (E-CAD, ZEB1) in EMT-induced lung cancer cells; type: cell-based
Procedure: The activity of TGF-β in a tumor microenvironment performs various functions, such as promoting cancer growth and EMT. Cancer cells were treated with TGF-β, an external stimulus, to induce EMT, and the results were illustrated in FIG. 1. To this end, A549 cells (KCBL No. 10185) as a lung cancer cell line were purchased from the Korean Cell Line Bank (KCLB). EMT was induced by treating the A549 cells with TGF-β (5 ng/mL, Peprotech, Cranbury, NJ, USA) for 48 hours. Changes in protein expression of cancer cells were confirmed through western blot analysis in the following process. First, cells were lysed in a lysis buffer [including 20 mM HEPES, pH 7.2, 150 mM NaCl, 0.5% Triton X-100, 10% glycerol, protease/phosphatase inhibitor mixture (protease/phosphatase inhibitor cocktail (Thermofisher, Waltham, MA))]. The lysate was centrifuged at 13,000 rpm at 4° C. for 20 minutes, and the supernatant was obtained and separated by SDS-PAGE, and then subjected to western blot analysis. To observe the amounts of proteins, E-cadherin (sc-21791), p53 (sc-126), SMAD4 (sc-7966), ZEB1 (sc-515797), mouse IgG (sc-2025) and rabbit IgG (#sc-2027) antibodies (purchased from Santa Cruz Biotechnology (Santa Cruz, CA, USA)) were used. In addition, ERK1/2 (#9102), phospho-ERK1/2 (#9106), phospho-MEK1/2 (#9121) and MYC (#13987) antibodies (Cell Signaling Technology (Beverly, MA, USA)) were used and the amounts of the proteins were observed. In addition, the rabbit polyclonal anti-GAPDH antibody was provided and used from the Korea Research Institute of Bioscience and Biotechnology.
TGF-β-treated cancer cells and -untreated cancer cells were treated with Nutlin-3a (5 μM, Sigma, St. Louis, Mo) to activate p53. It was confirmed whether the epithelial cell phenotype was restored according to p53 activation, and the results were shown in FIG. 2. At this time, after inducing EMT of A549 cells under the same conditions as in Example 1-1, Nutlin-3a (1 μM, Sigma, St. Louis, Mo) was treated, and Western blot and qRT-PCR were performed in the same method as in Example 1-1. […]

[2] = tested on: A549 cells; assay: qRT-PCR of genes related to mesenchymal cells, epithelial cells and stemness; type: cell-based
Procedure: In addition, qRT-PCR was performed to perform transcript analysis for all genes (n=3, mean±SD). The qRT-PCR analysis was performed using a PCR system (Veriti 96well Thermal Cycler, Applied Biosystems, Waltham, MA, USA), and the qRT-PCR analysis was performed using the QuantStudio 5 real-time PCR system (Applied Biosystems, Foster City, CA), samples containing 20 μL of cDNA, primers, and SYBR Master Mix (Genet Bio, Daejeon, Korea).
TGF-β-treated cancer cells and -untreated cancer cells were treated with Nutlin-3a (5 μM, Sigma, St. Louis, Mo) to activate p53. It was confirmed whether the epithelial cell phenotype was restored according to p53 activation, and the results were shown in FIG. 2. At this time, after inducing EMT of A549 cells under the same conditions as in Example 1-1, Nutlin-3a (1 μM, Sigma, St. Louis, Mo) was treated, and Western blot and qRT-PCR were performed in the same method as in Example 1-1.
In addition, in order to measure cell viability, the A549 cells from which the SMAD4 gene was deleted as described above were seeded in a 96-well plate and after 24 hours, EMT was induced and Nutlin-3a (1 μM) was treated, and then an anticancer drug 5-FU (1 μM) or DOX (0.5 μM) was treated for 5 days. In FIG. 4A, after 5 days, the cells were imaged using IncuCyte ZOOM (Sartorius, Gottingen, Germany), and the cell viability was measured by confluence of adherent living cells using IncuCyte software. In addition, the results were confirmed by qRT-PCR in the same manner as in Example 1-1 and illustrated in FIG. 4B (n=3, mean±SD).
Alternatively, in the same manner as in Example 2, the A549 cells from which the SMAD4 gene was deleted were treated with shRNAs set forth in SEQ ID NO: 2 (shERK1) and SEQ ID NO: 3 (shERK2), thereby deleting the ERK gene. Then, the results were confirmed by western blot analysis or qRT-PCR (n=3, mean±SD).

[3] = A549 cells, TGF-β 5 ng/mL for 48 hours

| Compound | epithelial cell phenotype (E-CAD+/ZEB1−), protein expression ([1]; TGF-β-treated A549 cells (TGF-β maintained)) | epithelial cell phenotype (E-CAD+/ZEB1−), protein expression ([1]; TGF-β-untreated A549 cells) | activity of SNAI1 gene (mesenchymal) ([2]; TGF-β-treated A549 cells) | activity of TWIST1 gene (mesenchymal) ([2]; TGF-β-treated A549 cells) | activity of ZEB1 gene (mesenchymal) ([2]; TGF-β-treated A549 cells) | activity of genes CDH1 and EpCAM related to epithelial cells ([2]; TGF-β-treated A549 cells) | expression of the E-cadherin protein [1, 3] | expression of GRHL2 and OVOL1 genes related to epithelial cells [2, 3] | expression of genes CDH1 and EpCAM related to epithelial cells [2, 3] | expression of genes SMAD4, ZEB1, VIM, SNAI1, SNAI2 related to mesenchymal cells [2, 3] |
| --- | --- | --- | --- | --- | --- | --- | --- | --- | --- | --- |
| COc1ccc(C2=N[C@@H](c3ccc(Cl)cc3)[C@@H](c3ccc(Cl)cc3)N2C(=O)N2CCNC(=O)C2)c(OC(C)C)c1 [Nutlin-3a] | converged to inactivation of E-CAD and inactivation of ZEB1 | restored | suppressed | almost no change | significantly inhibited | rather decreased or still showed the low activity | – | – | – | – |
| transforming growth factor beta [TGF-β] | – | – | – | – | – | – | reduced | did not show significant changes | reduced | activated |
